Tested on: 616215-338-R-J1-PDC complex spheroid viability
Experiment: Anticancer human tumor 616215-338-R-J1-PDC patient-derived colon adenocarcinoma cell line growth inhibition [RAS]
Details: for IC50: curve of first compound; for viability, T/C: stronger effect = lower value
In short: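 Tumour cells grown as complex spheroids with HUVEC endothelial cells and mesenchymal stem cells, treated with RAS pathway inhibitor combinations. Each agent spans half-log steps from near clinical Cmax, or 10 microM where Cmax is unknown.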

[1] = second compound 0.000949 µM, first compound 0.0316 µM
[2] = second compound 0.000949 µM, first compound 0.1 µM
[3] = second compound 0.000949 µM, first compound 0.316 µM
[4] = second compound 0.000949 µM, first compound 1 µM
[5] = second compound 0.000949 µM, first compound 3.16 µM
[6] = second compound 0.000949 µM, first compound 10 µM
[7] = second compound 0.003 µM, first compound 0.0316 µM
[8] = second compound 0.003 µM, first compound 0.1 µM
[9] = second compound 0.003 µM, first compound 0.316 µM
[10] = second compound 0.003 µM, first compound 1 µM
[11] = second compound 0.003 µM, first compound 3.16 µM
[12] = second compound 0.003 µM, first compound 10 µM
[13] = second compound 0.00949 µM, first compound 0.0316 µM
[14] = second compound 0.00949 µM, first compound 0.1 µM
[15] = second compound 0.00949 µM, first compound 0.316 µM
[16] = second compound 0.00949 µM, first compound 1 µM
[17] = second compound 0.00949 µM, first compound 3.16 µM
[18] = second compound 0.00949 µM, first compound 10 µM
[19] = second compound 0.03 µM, first compound 0.0316 µM
[20] = second compound 0.03 µM, first compound 0.1 µM
[21] = second compound 0.03 µM, first compound 0.316 µM
[22] = second compound 0.03 µM, first compound 1 µM
[23] = second compound 0.03 µM, first compound 3.16 µM
[24] = second compound 0.03 µM, first compound 10 µM
[25] = second compound 0.0949 µM, first compound 0.0316 µM
[26] = second compound 0.0949 µM, first compound 0.1 µM
[27] = second compound 0.0949 µM, first compound 0.316 µM
[28] = second compound 0.0949 µM, first compound 1 µM
[29] = second compound 0.0949 µM, first compound 3.16 µM
[30] = second compound 0.0949 µM, first compound 10 µM
[31] = second compound 0.3 µM, first compound 0.0316 µM
[32] = second compound 0.3 µM, first compound 0.1 µM
[33] = second compound 0.3 µM, first compound 0.316 µM
[34] = second compound 0.3 µM, first compound 1 µM
[35] = second compound 0.3 µM, first compound 3.16 µM
[36] = second compound 0.3 µM, first compound 10 µM
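Note: spheroids exposed to agents for seven days before viability readout.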
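Throughout, for viability, T/C: 100% = DMSO vehicle control viability.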

**Q.** For `CC(=O)OC12COC1CC(O)C1(C)C(=O)C(O)C3=C(C)C(OC(=O)C(O)C(NC(=O)OC(C)(C)C)c4ccccc4)CC(O)(C(OC(=O)c4ccccc4)C21)C3(C)C` (stereo unspecified) + CCn1c(-c2cccnc2C(C)OC)c2c3cc(ccc31)N1CCOC(CC(NC(=O)C(C(C)C)N(C)C(=O)C3(F)CCN(C(=O)C#CC(C)(C)N(C)C)CC3)C(=O)N3CCCC(N3)C(=O)OCC(C)(C)C2)C1, which IC50 (second compound 0.000949 µM) is on record?
**A.** < 31.6 nM

**Q.** What about the IC50 (second compound 0.003 µM) of the same compound?
**A.** < 31.6 nM

**Q.** What about the IC50 (second compound 0.00949 µM) of the same compound?
**A.** < 31.6 nM

**Q.** What about the IC50 (second compound 0.03 µM) of the same compound?
**A.** < 31.6 nM

**Q.** And the IC50 (second compound 0.0949 µM)?
**A.** < 31.6 nM

**Q.** What about the IC50 (second compound 0.3 µM) of the same compound?
**A.** < 31.6 nM

**Q.** What about the viability, T/C [1] of the same compound?
**A.** 30.9%

**Q.** What about the viability, T/C [2] of the same compound?
**A.** 20.4%

**Q.** And the viability, T/C [3]?
**A.** 19.5%

**Q.** And the viability, T/C [4]?
**A.** 19.6%

**Q.** And the viability, T/C [5]?
**A.** 22.6%

**Q.** And the viability, T/C [6]?
**A.** 28.7%

**Q.** And the viability, T/C [7]?
**A.** 30.8%

**Q.** What about the viability, T/C [8] of the same compound?
**A.** 23.1%

**Q.** And the viability, T/C [9]?
**A.** 20.3%

**Q.** What about the viability, T/C [10] of the same compound?
**A.** 22.1%

**Q.** What about the viability, T/C [11] of the same compound?
**A.** 24.2%

**Q.** What about the viability, T/C [12] of the same compound?
**A.** 27%

**Q.** And the viability, T/C [13]?
**A.** 28%

**Q.** And the viability, T/C [14]?
**A.** 24.2%

**Q.** And the viability, T/C [15]?
**A.** 19.9%

**Q.** And the viability, T/C [16]?
**A.** 20.8%

**Q.** And the viability, T/C [17]?
**A.** 24.8%

**Q.** What about the viability, T/C [18] of the same compound?
**A.** 24.6%

**Q.** What about the viability, T/C [19] of the same compound?
**A.** 25.9%

**Q.** And the viability, T/C [20]?
**A.** 21.9%

**Q.** What about the viability, T/C [21] of the same compound?
**A.** 18.3%

**Q.** What about the viability, T/C [22] of the same compound?
**A.** 19%

**Q.** And the viability, T/C [23]?
**A.** 22.6%

**Q.** And the viability, T/C [24]?
**A.** 22.4%

**Q.** What about the viability, T/C [25] of the same compound?
**A.** 33%

**Q.** What about the viability, T/C [26] of the same compound?
**A.** 19.8%

**Q.** And the viability, T/C [27]?
**A.** 19.8%

**Q.** And the viability, T/C [28]?
**A.** 19%

**Q.** What about the viability, T/C [29] of the same compound?
**A.** 22.2%

**Q.** What about the viability, T/C [30] of the same compound?
**A.** 23.1%

**Q.** And the viability, T/C [31]?
**A.** 28.8%

**Q.** And the viability, T/C [32]?
**A.** 17.9%

**Q.** What about the viability, T/C [33] of the same compound?
**A.** 17%

**Q.** What about the viability, T/C [34] of the same compound?
**A.** 17.6%

**Q.** And the viability, T/C [35]?
**A.** 20.8%

**Q.** And the viability, T/C [36]?
**A.** 25.5%

**Q.** What does the source list for `NC1c2ccccc2OC12CCN(c1cnc3c(N4CCCc5ncccc54)n[nH]c3n1)CC2` (stereo unspecified) + CCn1c(-c2cccnc2C(C)OC)c2c3cc(ccc31)N1CCOC(CC(NC(=O)C(C(C)C)N(C)C(=O)C3(F)CCN(C(=O)C#CC(C)(C)N(C)C)CC3)C(=O)N3CCCC(N3)C(=O)OCC(C)(C)C2)C1?
**A.** IC50 (second compound 0.000949 µM): 6250 nM; IC50 (second compound 0.003 µM): 7000 nM; IC50 (second compound 0.00949 µM): > 10000 nM; IC50 (second compound 0.03 µM): 2960 nM; IC50 (second compound 0.0949 µM): 1700 nM; IC50 (second compound 0.3 µM): 564 nM; viability, T/C [1]: 121%; viability, T/C [2]: 92.4%; viability, T/C [3]: 81.9%; viability, T/C [4]: 67.8%; viability, T/C [5]: 61%; viability, T/C [6]: 43.1%; viability, T/C [7]: 119%; viability, T/C [8]: 94.7%; viability, T/C [9]: 75.5%; viability, T/C [10]: 64.8%; viability, T/C [11]: 64.2%; viability, T/C [12]: 43%; viability, T/C [13]: 113%; viability, T/C [14]: 85.2%; viability, T/C [15]: 72.7%; viability, T/C [16]: 59%; viability, T/C [17]: 64.6%; viability, T/C [18]: 49.5%; viability, T/C [19]: 106%; viability, T/C [20]: 85.1%; viability, T/C [21]: 76.9%; viability, T/C [22]: 56.4%; viability, T/C [23]: 56.7%; viability, T/C [24]: 35%; viability, T/C [25]: 105%; viability, T/C [26]: 75.7%; viability, T/C [27]: 59.4%; viability, T/C [28]: 56.3%; viability, T/C [29]: 51.8%; viability, T/C [30]: 38.5%; viability, T/C [31]: 73.4%; viability, T/C [32]: 58%; viability, T/C [33]: 56.2%; viability, T/C [34]: 46.6%; viability, T/C [35]: 42.8%; viability, T/C [36]: 41%

**Q.** Which IC50 (second compound 0.000949 µM) does the source give for `Nc1ccn(C2OC(CO)C(O)C2(F)F)c(=O)n1` (stereo unspecified) + CCn1c(-c2cccnc2C(C)OC)c2c3cc(ccc31)N1CCOC(CC(NC(=O)C(C(C)C)N(C)C(=O)C3(F)CCN(C(=O)C#CC(C)(C)N(C)C)CC3)C(=O)N3CCCC(N3)C(=O)OCC(C)(C)C2)C1 here?
**A.** 15.2 nM

**Q.** What about the IC50 (second compound 0.003 µM) of the same compound?
**A.** 11.2 nM

**Q.** What about the IC50 (second compound 0.00949 µM) of the same compound?
**A.** 14.6 nM

**Q.** And the IC50 (second compound 0.03 µM)?
**A.** 11.5 nM

**Q.** And the IC50 (second compound 0.0949 µM)?
**A.** 10.1 nM

**Q.** And the IC50 (second compound 0.3 µM)?
**A.** 9.55 nM

**Q.** What about the viability, T/C (second compound 0.000949 µM, first compound 0.00316 µM) of the same compound?
**A.** 105%

**Q.** And the viability, T/C (second compound 0.000949 µM, first compound 0.01 µM)?
**A.** 62.8%

**Q.** What about the viability, T/C [1] of the same compound?
**A.** 28%

**Q.** And the viability, T/C [2]?
**A.** 13.1%

**Q.** What about the viability, T/C [3] of the same compound?
**A.** 16.3%

**Q.** What about the viability, T/C [4] of the same compound?
**A.** 14.2%

**Q.** And the viability, T/C (second compound 0.003 µM, first compound 0.00316 µM)?
**A.** 114%

**Q.** What about the viability, T/C (second compound 0.003 µM, first compound 0.01 µM) of the same compound?
**A.** 51.5%

**Q.** What about the viability, T/C [7] of the same compound?
**A.** 29%

**Q.** And the viability, T/C [8]?
**A.** 14.6%

**Q.** And the viability, T/C [9]?
**A.** 11.6%

**Q.** And the viability, T/C [10]?
**A.** 12.4%

**Q.** And the viability, T/C (second compound 0.00949 µM, first compound 0.00316 µM)?
**A.** 108%

**Q.** And the viability, T/C (second compound 0.00949 µM, first compound 0.01 µM)?
**A.** 61.2%

**Q.** What about the viability, T/C [13] of the same compound?
**A.** 27.5%

**Q.** And the viability, T/C [14]?
**A.** 14.7%

**Q.** What about the viability, T/C [15] of the same compound?
**A.** 14.1%

**Q.** And the viability, T/C [16]?
**A.** 13.2%

**Q.** And the viability, T/C (second compound 0.03 µM, first compound 0.00316 µM)?
**A.** 114%

**Q.** And the viability, T/C (second compound 0.03 µM, first compound 0.01 µM)?
**A.** 53.9%

**Q.** What about the viability, T/C [19] of the same compound?
**A.** 22.2%

**Q.** What about the viability, T/C [20] of the same compound?
**A.** 14.9%

**Q.** What about the viability, T/C [21] of the same compound?
**A.** 14.6%

**Q.** And the viability, T/C [22]?
**A.** 13.5%

**Q.** What about the viability, T/C (second compound 0.0949 µM, first compound 0.00316 µM) of the same compound?
**A.** 95.7%

**Q.** What about the viability, T/C (second compound 0.0949 µM, first compound 0.01 µM) of the same compound?
**A.** 50.1%

**Q.** And the viability, T/C [25]?
**A.** 22.9%

**Q.** What about the viability, T/C [26] of the same compound?
**A.** 14.3%

**Q.** And the viability, T/C [27]?
**A.** 15.2%

**Q.** What about the viability, T/C [28] of the same compound?
**A.** 12.6%

**Q.** What about the viability, T/C (second compound 0.3 µM, first compound 0.00316 µM) of the same compound?
**A.** 69.7%

**Q.** What about the viability, T/C (second compound 0.3 µM, first compound 0.01 µM) of the same compound?
**A.** 48.9%

**Q.** What about the viability, T/C [31] of the same compound?
**A.** 27.8%

**Q.** What about the viability, T/C [32] of the same compound?
**A.** 16.6%

**Q.** And the viability, T/C [33]?
**A.** 17%

**Q.** And the viability, T/C [34]?
**A.** 17%
